In US20230114728A1 (Venatorx Pharmaceuticals, Inc., priority 2019, published 2023):
≈ marks a conversion by molar mass, not a printed value.

Key:
P. aeruginosa PAO1 = assay: Broth microdilution MIC in CAMHB; type: cell-based; settings: Pseudomonas aeruginosa, MHB, read-out: Minimum Inhibitory Concentration, P. aeruginosa PAO1
Description: To determine the ability of test compounds to inhibit the growth of bacterial strains, classic cell based broth microdilution minimum inhibitory concentration (MIC) assays were employed. MIC assays are performed according to CLSI methods except where otherwise noted (CLSI, 2018 and CLSI, 2019). The reference type strain E. coli ATCC 25922; the wild-type parent strain E. coli AG100; the hyper-permeable E. coli 901C and E. coli D22; and the E. coli AG100A strain lacking the acrAB efflux pump encoding genes were used to determine the ability of the PBP inhibitors to penetrate the outer membrane of gram-negative bacteria and inhibit bacterial growth. […] The P. aeruginosa ATCC 27853 and A. baumannii ATCC 19606, along with the hyper-permeable P. aeruginosa ATCC 35151 and an engineered efflux pump-compromised strain of P. aeruginosa (ΔmexAB-oprM) were used to determine the ability of PBP inhibitors to penetrate the outer membrane of P. aeruginosa and A. baumannii and assess antibacterial activity against these important gram-negative organisms.
Briefly, cryo-preserved bacterial cultures of challenge strains are streaked for isolation on appropriate agar medium, in this case cation-adjusted Mueller Hinton agar. Following incubation to allow growth of the colonies, plates are sealed with parafilm and stored refrigerated for up to two weeks. For preparation of assay inoculum and to ensure low variability, at least 5 colonies are picked from the agar plates with an inoculating loop and aseptically transferred to a culture tube containing 3 mL of cation-adjusted Mueller Hinton broth (CAMHB). The broth culture is grown for 3-5 hours at 37° C. with shaking at 200 rpm. Meanwhile, 2-fold serial dilutions of test compounds are conducted in a 96-well plate with a final volume of 75 μL per well at 2-fold the final desired concentration. After the dilution plates are set up the growing cultures are then diluted in a cuvette containing CAMHB and the optical density is measured at 600 nm. The inoculum is diluted such that 75 μL of this culture in CAMHB results in a starting bacterial concentration of 2-8×10^5 CFU/mL when added to the dilution plates. The plates are incubated for 16-20 hours for Enterobacteriaceae and Pseudomonas and 20-24 hours for Acinetobacter at 37° C. The MIC values are read visually as the lowest concentration well with no bacterial growth.

E. coli K12 PBP3 = molecular target: T1, E. coli K12 PBP3 (Escherichia coli, UniProt P0AD68); assay: biochemical; type: binding
T1 construct: made in house
Outline: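 Fluorescence polarization (ex 490/em 520 nm) competition of inhibitors against Bocillin-FL at 0.1 μM, read up to 60 min. Final PBP levels: E. coli PBP3 1.5 μM; A. baumannii PBP2 2.5 μM, PBP3 0.2 μM in Tris pH 8.0/NaCl/glycerol/Tween 20; N. gonorrhoeae PBP2 […] in Hepes pH 8.0/NaCl/glycerol. EC50 = concentration halving PBP-bound Bocillin-FL.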

E. coli D22 = assay: Broth microdilution MIC in CAMHB; type: cell-based; settings: Escherichia coli; E. coli D22 (hyper-permeable); MHB; read-out: Minimum Inhibitory Concentration, E. coli D22
Outline: (§1)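 Colonies from cation-adjusted Mueller Hinton agar are grown in broth (3-5 h, 37° C), adjusted by OD600, and added at 2-8×10^5 CFU/mL to 2-fold compound dilutions. After 16-20 h at 37° C, the lowest concentration without growth is taken as MIC.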

[1] = test system: K. pneumoniae SI-117 producing VIM-1; assay: Broth microdilution MIC in CAMHB; type: cell-based; settings: Klebsiella pneumoniae, read-out: Minimum Inhibitory Concentration, K. pneumoniae SI-117
Outline: as §1

P. aeruginosa ATCC 35151 = assay: Broth microdilution MIC in CAMHB; type: cell-based; settings: Pseudomonas aeruginosa, ATCC35151; MHB; hyper-permeable strain; read-out: Minimum Inhibitory Concentration, P. aeruginosa ATCC 35151
Outline: as §1

E. coli AG100 = assay: Broth microdilution MIC in CAMHB; type: cell-based; settings: Escherichia coli; E. coli AG100 (wild-type parent); MHB; read-out: Minimum Inhibitory Concentration, E. coli AG100
Outline: as §1

[2] = test system: P. aeruginosa (ΔmexAB-oprM); assay: Broth microdilution MIC in CAMHB; type: cell-based; settings: Pseudomonas aeruginosa, read-out: Minimum Inhibitory Concentration, P. aeruginosa ΔmexAB-OprM
Outline: as §1

E. coli ATCC 25922 = assay: Broth microdilution MIC in CAMHB; type: cell-based; settings: Escherichia coli, ATCC25922; E. coli ATCC 25922; MHB; read-out: Minimum Inhibitory Concentration, E. coli 25922
Outline: as §1

A. baumannii ATCC 19606 = assay: Broth microdilution MIC in CAMHB; type: cell-based; settings: Acinetobacter baumannii, ATCC19606; MHB; read-out: Minimum Inhibitory Concentration, A. baumannii ATCC 19606
Outline: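 MIC, read by eye, is the lowest compound concentration giving no bacterial growth after 16-20 h at 37° C. Test compounds are serially diluted 2-fold in CAMHB and seeded with 2-8×10^5 CFU/mL of bacteria taken from a 3-5 h shaking culture, following CLSI methods.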

[3] = test system: K. pneumoniae UMM producing SHV-5 and KPC-2; assay: Broth microdilution MIC in CAMHB; type: cell-based; settings: Klebsiella pneumoniae, read-out: Minimum Inhibitory Concentration, K. pneumoniae UMM
Outline: as §1

[4] = test system: K. pneumoniae 848844 producing SHV-11 and KPC-2; assay: Broth microdilution MIC in CAMHB; type: cell-based; settings: Klebsiella pneumoniae, read-out: Minimum Inhibitory Concentration, K. pneumoniae 848844
Outline: as §1

E. coli 901C = assay: Broth microdilution MIC in CAMHB; type: cell-based; settings: Escherichia coli; E. coli 901C (hyper-permeable); MHB; read-out: Minimum Inhibitory Concentration, E. coli 901C
Outline: as §1

E. coli AG100A = assay: Broth microdilution MIC in CAMHB; type: cell-based; settings: Escherichia coli, read-out: Minimum Inhibitory Concentration, E. coli AG100A
Outline: as §1

P. aeruginosa PBP3 = molecular target: T2, P. aeruginosa PBP3 (Pseudomonas aeruginosa, UniProt G3XD46); assay: Bocillin-FL fluorescence polarization competition binding assay, P. aeruginosa PBP3; settings: fluorescence polarization competition binding assay using Bocillin-FL
T2 construct: made in house
Outline: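 Binding of boronic acid inhibitors to purified Pseudomonas aeruginosa (PA01) PBP3 was measured by fluorescence polarization competition with Bocillin-FL, a fluorescent penicillin V. Reactions of 80 μl contained 0.75 μM PBP3 and 0.1 μM Bocillin-FL in 50 mM Hepes (pH 8.0), 300 mM NaCl and 5% (v/v) glycerol, in black 384-well plates. FP (Excitation 490 nm, Emission 520 nm) was read for up to 60 minutes. EC50 is the concentration that halves PBP-bound Bocillin-FL.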

A. baumannii PBP3 = A. baumannii PBP3 (Acinetobacter baumannii, UniProt A0ABX6CK25); assay: Bocillin-FL fluorescence polarization competition binding assay, A. baumannii PBP3
Description: (§2) Example I: Experimental Method for Penicillin-Binding Protein Binding Assays with Bocillin-FL Via Fluorescence Polarization
(§3) To determine the ability of boronic acid-based test PBP inhibitors to bind Penicillin Binding Proteins (PBPs), Bocillin-FL (fluorescently-labeled penicillin V; ThermoFisher Scientific) was used in a fluorescence polarization (FP) competition binding assay to assess inhibitor binding to PBP2, PBP3 or PBP4 from Escherichia coli (K12), PBP3 from Pseudomonas aeruginosa (PA01), PBP1a, PBP2 and PBP3 from Acinetobacter baumannii (ATCC 19606), and PBP2 from Neiserria gonorrheae (FA19). PBPs were cloned and purified as described previously (E. coli PBPs, King, D. T, et al., ACS Infectious Diseases 2015, 1, 175-184; P. aeruginosa PBP3, Han et. al., PNAS 2010, 107 (51), 22002-22007; A. baumannii PBPs, Penwell et. al., Antimicrob. Agents Chemother. 2015, 59 (3), 1680-1689; N. gonorrhoeae PBP2, Singh et. al., J Biol. Chem. 2019, 294 (38), 14020-14032). To establish assay conditions for competition binding, enzyme titration/saturation binding experiments were initially performed. Bocillin-FL was prepared at 0.2 μM in a buffer comprised of 50 mM Hepes (pH 8.0), 300 mM NaCl and 5% (v/v) glycerol for reactions with E. coli, P. aeruginosa and N. gonorrhoeae PBPs, and 25 mM Tris (pH 8.0), 200 mM NaCl and 10% (v/v) glycerol and 0.005% (v/v) Tween 20 for reactions with A. baumannii PBPs. Saturation binding was performed by mixing 40 μl of PBP solutions ranging in concentrations from 0-24 μM with 40 μl of the 0.2 μM Bocillin-FL solution, in individual wells of a black 384-well microplate. FP was measured immediately upon mixing (Excitation, 490 nm; Emission, 520 nm; g-factor, 0.96), using a Cytation3 (BioTek) microplate reader and measured continuously for up to 120 minutes. […] The competition binding assay (80 μl final volume) was validated using beta-lactams and PBPs at final concentrations of: 1.5 μM, E. coli PBP3; 0.75 μM, P. aeruginosa PBP3; 1 μM A. baumannii PBP1a; 2.5 μM A. baumannii PBP2; 0.2 μM A. baumannii PBP3; and […] N. gonorrhoeae PBP2. Bocillin-FL was at 0.1 μM (0.05 μM with A. baumannii PBP1a) and beta-lactam concentrations ranged from 0-1000 μM. […] Bocillin-FL was added and the FP immediately measured for up to 60 minutes (90 minutes for E. coli PBP2). […] The beta-lactam potency was reported as the concentration of beta-lactam required to reduce the amount of PBP bound-Bocillin-FL by 50% (EC50). […] Binding assays for boronic acid PBP inhibitors were performed in an identical fashion for the respective PBPs

E. coli K12 PBP4 = molecular target: T3, E. coli K12 PBP4 (Escherichia coli, UniProt P24228); assay: Bocillin-FL fluorescence polarization competition binding assay, E. coli PBP4; settings: E. coli PBP4; assay validation with beta-lactams; read-out: EC50 (concentration of beta-lactam required to reduce the amount of PBP bound-Bocillin-FL by 50%)
T3 construct: made in house
Description: as §2
To determine the ability of boronic acid-based test PBP inhibitors to bind Penicillin Binding Proteins (PBPs), Bocillin-FL (fluorescently-labeled penicillin V; ThermoFisher Scientific) was used in a fluorescence polarization (FP) competition binding assay to assess inhibitor binding to PBP2, PBP3 or PBP4 from Escherichia coli (K12), PBP3 from Pseudomonas aeruginosa (PA01), PBP1a, PBP2 and PBP3 from Acinetobacter baumannii (ATCC 19606), and PBP2 from Neiserria gonorrheae (FA19). PBPs were cloned and purified as described previously (E. coli PBPs, King, D. T, et al., ACS Infectious Diseases 2015, 1, 175-184; P. aeruginosa PBP3, Han et. al., PNAS 2010, 107 (51), 22002-22007; A. baumannii PBPs, Penwell et. al., Antimicrob. Agents Chemother. 2015, 59 (3), 1680-1689; N. gonorrhoeae PBP2, Singh et. al., J Biol. Chem. 2019, 294 (38), 14020-14032). To establish assay conditions for competition binding, enzyme titration/saturation binding experiments were initially performed. Bocillin-FL was prepared at 0.2 μM in a buffer comprised of 50 mM Hepes (pH 8.0), 300 mM NaCl and 5% (v/v) glycerol for reactions with E. coli, P. aeruginosa and N. gonorrhoeae PBPs, and 25 mM Tris (pH 8.0), 200 mM NaCl and 10% (v/v) glycerol and 0.005% (v/v) Tween 20 for reactions with A. baumannii PBPs. Saturation binding was performed by mixing 40 μl of PBP solutions ranging in concentrations from 0-24 μM with 40 μl of the 0.2 μM Bocillin-FL solution, in individual wells of a black 384-well microplate. FP was measured immediately upon mixing (Excitation, 490 nm; Emission, 520 nm; g-factor, 0.96), using a Cytation3 (BioTek) microplate reader and measured continuously for up to 120 minutes. […] Bocillin-FL was added and the FP immediately measured for up to 60 minutes (90 minutes for E. coli PBP2). […]

A. baumannii PBP1a = A. baumannii PBP1a (Acinetobacter baumannii, UniProt A0ABX6CK30); assay: Bocillin-FL fluorescence polarization competition binding assay, A. baumannii PBP1a
Description: as §2, §3

Structure (SMILES): CCN1CCN(C(=O)NC(C(=O)N[C@H]2Cc3ccc(C(F)(F)F)c(C(=O)O)c3OB2O)c2csc(N)n2)C(=O)C1=O (stereo partly drawn) [Example 63, (3R)-3-(2-(2-aminothiazol-4-yl)-2-(4-ethyl-2,3-dioxopiperazine-1-carboxamido)acetamido)-2-hydroxy-7-(trifluoromethyl)-3,4-dihydro-2H-benzo[e][1,2]oxaborinine-8-carboxylic acid]
- MIC (P. aeruginosa PAO1): > 128 µg/mL
- EC50 (E. coli K12 PBP3): > 500000 nM
- MIC (E. coli D22): > 128 µg/mL
- MIC [1]: > 128 µg/mL
- MIC (P. aeruginosa ATCC 35151): 8 to 16 µg/mL (≈ 13.4 to 26.7 µM)
- MIC (E. coli AG100): > 128 µg/mL
- MIC [2]: > 128 µg/mL
- MIC (E. coli ATCC 25922): > 128 µg/mL
- MIC (A. baumannii ATCC 19606): > 128 µg/mL
- MIC [3]: > 128 µg/mL
- MIC [4]: > 128 µg/mL
- MIC (E. coli 901C): 8 to 16 µg/mL (≈ 13.4 to 26.7 µM)
- MIC (E. coli AG100A): > 128 µg/mL
- P. aeruginosa PBP3 Potency (P. aeruginosa PBP3): B (B represents a potency between 30 μM and 500 μM inclusive)

Structure (SMILES): C[C@@H](O)[C@H]1C(=O)N2C(C(=O)O)=C(S[C@@H]3CN[C@H](C(=O)N(C)C)C3)[C@H](C)[C@H]12 [meropenem, reference compound]
- EC50 (A. baumannii PBP3): 230 nM
- EC50 (E. coli K12 PBP4): < 2000 nM
- EC50 (A. baumannii PBP1a): 230 nM
